Assay results: patent US9701680B2, “Pyrimidine and pyridine compounds and their usage” (HUTCHISON MEDIPHARMA LIMITED, priority 2013, dated 2017)
Like-named read-outs stand apart in the source and are kept apart here.

Experiments:
[1] = test system: KG-1; assay: Cellular Proliferation Assay (Cell Counting Kit-8), KG-1; type: cell-based; conditions: Homo sapiens; KG-1 cells, 72 hours; read-out: KG1 IC50
Method in brief: (§1)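 Seeding per well: KG-1 30000, SNU-16 5000, RT-112 1000 cells. After 24 h an 8-point series (working dilutions 10 to 0.004 μM in 5% DMSO) was added for 72 h at 37 °C, 5% CO2. CCK-8 OD450 after 1 h, corrected for media background and normalised to untreated cells, gave IC50.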

[2] = test system: SNU-16; assay: Cellular Proliferation Assay (Cell Counting Kit-8), SNU-16; type: cell-based; conditions: Homo sapiens; SNU-16 cells, 72 hours
Method in brief: as §1

[3] = target: Recombinant human FGFR2 (Homo sapiens, UniProt P21802); assay: Transcreener Kinase Assay of FGFR2; type: biochemical
Chain of Recombinant human FGFR2 (P21802 22-821): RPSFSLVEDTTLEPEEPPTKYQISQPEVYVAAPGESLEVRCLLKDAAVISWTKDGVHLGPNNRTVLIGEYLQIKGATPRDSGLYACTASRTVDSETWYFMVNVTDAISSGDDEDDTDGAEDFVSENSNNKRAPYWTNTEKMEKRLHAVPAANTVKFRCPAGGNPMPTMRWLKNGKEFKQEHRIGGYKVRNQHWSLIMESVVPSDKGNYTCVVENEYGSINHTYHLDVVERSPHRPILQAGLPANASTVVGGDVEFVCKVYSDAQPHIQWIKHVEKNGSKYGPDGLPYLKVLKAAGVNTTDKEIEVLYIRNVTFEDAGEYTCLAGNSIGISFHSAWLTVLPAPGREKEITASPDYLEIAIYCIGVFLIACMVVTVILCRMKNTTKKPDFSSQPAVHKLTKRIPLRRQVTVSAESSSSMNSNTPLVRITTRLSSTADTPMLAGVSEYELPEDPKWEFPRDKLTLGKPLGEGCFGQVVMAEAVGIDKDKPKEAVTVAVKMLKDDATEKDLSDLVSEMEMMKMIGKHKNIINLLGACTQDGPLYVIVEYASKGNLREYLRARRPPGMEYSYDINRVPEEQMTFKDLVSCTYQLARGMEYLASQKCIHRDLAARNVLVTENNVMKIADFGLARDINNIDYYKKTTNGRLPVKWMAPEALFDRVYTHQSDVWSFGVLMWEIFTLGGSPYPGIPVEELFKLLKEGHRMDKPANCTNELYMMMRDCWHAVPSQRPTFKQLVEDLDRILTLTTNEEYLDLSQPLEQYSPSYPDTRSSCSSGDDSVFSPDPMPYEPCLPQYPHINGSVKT

[4] = test system: RT-112; assay: Cellular Proliferation Assay (Cell Counting Kit-8), RT-112; type: cell-based; conditions: Homo sapiens; RT-112 cells, 72 hours
Method in brief: as §1

[5] = target: FGFR3 kinase (Homo sapiens, UniProt P22607); assay: Z-Lyte Kinase Assay of FGFR3; type: biochemical
Chain of FGFR3 kinase (P22607 23-806): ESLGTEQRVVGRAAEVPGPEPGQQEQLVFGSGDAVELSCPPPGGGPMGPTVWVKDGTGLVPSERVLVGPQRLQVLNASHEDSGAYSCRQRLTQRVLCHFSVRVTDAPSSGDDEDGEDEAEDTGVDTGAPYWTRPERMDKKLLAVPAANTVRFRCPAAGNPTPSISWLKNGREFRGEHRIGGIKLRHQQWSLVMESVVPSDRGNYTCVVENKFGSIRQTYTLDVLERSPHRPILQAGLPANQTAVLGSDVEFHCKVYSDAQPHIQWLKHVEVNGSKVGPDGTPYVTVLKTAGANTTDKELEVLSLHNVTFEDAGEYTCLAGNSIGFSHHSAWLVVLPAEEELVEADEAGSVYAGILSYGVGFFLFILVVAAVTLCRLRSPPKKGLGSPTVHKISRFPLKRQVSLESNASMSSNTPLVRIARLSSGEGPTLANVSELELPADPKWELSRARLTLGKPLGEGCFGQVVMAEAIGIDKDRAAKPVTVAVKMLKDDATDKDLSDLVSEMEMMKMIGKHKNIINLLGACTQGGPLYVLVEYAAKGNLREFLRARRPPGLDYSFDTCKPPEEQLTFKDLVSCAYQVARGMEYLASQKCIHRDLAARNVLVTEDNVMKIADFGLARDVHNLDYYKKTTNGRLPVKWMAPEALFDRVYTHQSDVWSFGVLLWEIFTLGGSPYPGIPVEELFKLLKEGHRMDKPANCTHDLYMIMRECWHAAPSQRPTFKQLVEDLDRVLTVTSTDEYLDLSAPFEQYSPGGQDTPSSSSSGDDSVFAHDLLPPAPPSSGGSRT
Method in brief: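 Z-LYTE FRET assay, kinase 0.7 μg/ml with Tyr 4 peptide 4 μM (P/K solution), ATP diluted to 300 uM in 1.33× buffer; compound final 1 to 0.00046 μM, 2% DMSO.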

[6] = target: Recombinant human FGFR1 (Homo sapiens, UniProt P11362); assay: Transcreener Kinase Assay of FGFR1; type: biochemical
Chain of Recombinant human FGFR1 (P11362 22-822): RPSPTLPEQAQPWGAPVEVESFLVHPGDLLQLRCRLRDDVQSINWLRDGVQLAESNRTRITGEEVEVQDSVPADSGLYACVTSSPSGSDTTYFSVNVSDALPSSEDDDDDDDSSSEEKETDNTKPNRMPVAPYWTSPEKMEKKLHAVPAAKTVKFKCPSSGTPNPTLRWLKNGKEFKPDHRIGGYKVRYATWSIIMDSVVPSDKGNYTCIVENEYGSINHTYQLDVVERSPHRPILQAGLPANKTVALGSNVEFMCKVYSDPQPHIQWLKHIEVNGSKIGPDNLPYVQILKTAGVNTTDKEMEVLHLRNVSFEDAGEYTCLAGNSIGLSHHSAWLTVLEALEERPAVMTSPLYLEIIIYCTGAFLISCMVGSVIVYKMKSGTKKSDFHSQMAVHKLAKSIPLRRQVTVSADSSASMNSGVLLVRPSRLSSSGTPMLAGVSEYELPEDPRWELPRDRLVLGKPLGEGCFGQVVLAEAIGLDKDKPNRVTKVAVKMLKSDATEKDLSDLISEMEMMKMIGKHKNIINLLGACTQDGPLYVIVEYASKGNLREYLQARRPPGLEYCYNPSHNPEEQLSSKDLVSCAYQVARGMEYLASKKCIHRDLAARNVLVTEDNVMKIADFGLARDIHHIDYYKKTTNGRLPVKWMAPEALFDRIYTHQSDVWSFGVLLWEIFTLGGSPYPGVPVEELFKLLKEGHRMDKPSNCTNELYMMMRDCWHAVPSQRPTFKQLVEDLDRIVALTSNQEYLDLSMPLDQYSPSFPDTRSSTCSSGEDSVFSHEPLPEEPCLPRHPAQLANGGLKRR
Method in brief: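 Recombinant human FGFR1 was reacted with Poly E4Y substrate and ATP for 45 min at 28 °C, with compounds at 1 to 0.0005 µM in 1% DMSO final. Inhibition is relative to the DMSO control, with IC50 from a curve fit.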

Compound	IC50 [1]	IC50 [2]	IC50 ([3]; read-out: FGFR2 (FP) IC50)	IC50 [4]	IC50 [5]	IC50 ([6]; read-out: FGFR1 (FP) IC50)	IC50 ([3]; FP)	IC50 ([5]; Z-lyte)	IC50 ([6]; FP)
CCCN1CC(c2ccc(Nc3ncc(OCc4cc(C(=O)NC)cc(OC)c4F)cn3)cn2)C1 [Compound 241]	162 nM	31 nM	21 nM	112 nM	19 nM	31 nM			
CCN(CC)CCn1cc(Nc2ncc(OCc3c(F)c(OC)cc(C(=O)NC)c3F)cn2)cn1 [Compound 251]	31 nM	41 nM	23 nM	87 nM	24 nM	25 nM			
CNC(=O)c1cc(COc2cnc(Nc3ccc(OC)c(OC)c3)nc2)c(F)c(OC)c1 [Compound 218]	27 nM	7 nM	12 nM	44 nM	21 nM	25 nM			
CNC(=O)c1cc(COc2cnc(Nc3ccc(OC)c(N4CCN(C)CC4)c3)nc2)c(F)c(OC)c1 [Compound 270]	52 nM	10 nM	9 nM	23 nM	8 nM	18 nM			
CCN1CCC(c2ccc(Nc3ncc(OCc4cc(C(=O)NC)cc(OC)c4F)cn3)cn2)CC1 [Compound 256]	202 nM	22 nM	40 nM	57 nM	39 nM	100 nM			
CNC(=O)c1cc(CCc2cnc(Nc3ccc(N4C[C@@H](C)N(C)[C@@H](C)C4)nc3)nc2)c(Cl)c(OC)c1 [Compound 158]	16 nM	7 nM	7 nM	29 nM	6 nM	14 nM			
CNC(=O)c1cc(CCc2cnc(Nc3ccc(N4C[C@@H](C)N(C)[C@@H](C)C4)cc3)nc2)c(Cl)c(OC)c1 [Compound 175]	11 nM	12 nM	8 nM	30 nM	6 nM	12 nM			
CNC(=O)c1cc(COc2cnc(Nc3cccc(NC(C)=O)c3)nc2)c(F)c(OC)c1 [Compound 216]	24 nM	20 nM	7 nM	132 nM	11 nM	10 nM			
CNC(=O)c1cc(COc2cnc(Nc3ccc(N4CCOCC4)nc3)nc2)c(Cl)c(OC)c1 [Compound 247]	42 nM	28 nM	16 nM	57 nM	23 nM	34 nM			
CNC(=O)c1cc(COc2cnc(Nc3ccc(N4C[C@@H](C)N(C)[C@@H](C)C4)nc3)nc2)c(F)c(OC)c1 [Compound 268]	17 nM	18 nM	16 nM	47 nM	20 nM	21 nM			
CNC(=O)c1cc(CCc2cnc(Nc3ccc(NC[C@@H](C)N)cc3)nc2)c(Cl)c(OC)c1 [Compound 92]	90 nM	32 nM	8 nM	87 nM	10 nM	8 nM			
CNC(=O)c1cc(COc2cnc(Nc3ccc(O[C@@H]4O[C@H](CO)[C@@H](O)[C@H](O)[C@H]4O)cc3)nc2)c(Cl)c(OC)c1 [Compound 303]	40 nM	23 nM		64 nM			7 nM	7 nM	11 nM
CNC(=O)c1cc(CCc2cnc(Nc3ccc(N4C[C@@H](C)N(C)[C@@H](C)C4)cc3)nc2)c(F)c(OC)c1 [Compound 171]	8 nM	16 nM	8 nM	43 nM	11 nM	12 nM			
CNC(=O)c1cc(OC)c(Cl)c(COc2cnc(Nc3ccc(N4C[C@@H](C)N[C@@H](C)C4)c(C)c3)nc2)c1F [Compound 298]	8 nM	14 nM		15 nM			8 nM	13 nM	9 nM
CNC(=O)c1cc(COc2cnc(Nc3ccc(N4CCN(C)CC4)c(OC)c3)nc2)c(Cl)c(OC)c1 [Compound 288]	2 nM	2 nM		3 nM			4 nM	4 nM	6 nM
CNC(=O)c1cc(CCc2cnc(Nc3ccc(N4CCN(C)CC4)c(OC)c3)nc2)c(F)c(OC)c1 [Compound 172]	13 nM	4 nM	6 nM	12 nM	6 nM	7 nM			
CNC(=O)c1cc(COc2cnc(Nc3cnc(N4C[C@@H](C)N[C@@H](C)C4)nc3)nc2)c(Cl)c(OC)c1 [Compound 276]	83 nM	21 nM	23 nM	140 nM	21 nM	20 nM			
CNC(=O)c1cc(OC)c(Cl)c(COc2cnc(Nc3ccc(N4C[C@@H](C)N[C@@H](C)C4)cc3)nc2)c1F [Compound 290]	6 nM	11 nM		12 nM			7 nM	11 nM	10 nM
CNC(=O)c1cc(COc2cnc(Nc3ccc(N4CCN(C)CC4)nc3)nc2)c(Cl)c(OC)c1 [Compound 263]	7 nM	14 nM	5 nM	28 nM	6 nM	5 nM			
CNC(=O)c1cc(COc2cnc(Nc3cccc(OC)c3)nc2)c(F)c(OC)c1 [Compound 212]	59 nM	14 nM	16 nM	57 nM	80 nM	26 nM			
CNC(=O)c1cc(COc2cnc(Nc3ccc(N4C[C@@H](C)N(C)[C@@H](C)C4)cc3)nc2)c(F)c(OC)c1 [Compound 267]	28 nM	17 nM	6 nM	33 nM	8 nM	6 nM			
CNC(=O)c1cc(COc2cnc(Nc3ccc(-n4cnnc4)cc3)nc2)c(F)c(OC)c1 [Compound 223]	102 nM	51 nM	18 nM	729 nM	20 nM	29 nM			
CNC(=O)c1cc(COc2cnc(Nc3cccc(S(C)(=O)=O)c3)nc2)c(F)c(OC)c1 [Compound 227]	35 nM	20 nM	8 nM	85 nM	25 nM	23 nM			
CNC(=O)c1cc(COc2cnc(Nc3ccc(CCN(C)C)cc3)nc2)c(F)c(OC)c1 [Compound 225]	7 nM	14 nM	15 nM	21 nM	11 nM	26 nM			
CCN(CC)CCOc1ccc(Nc2ncc(OCc3cc(C(=O)NC)cc(OC)c3F)cn2)cc1 [Compound 262]	37 nM	29 nM	20 nM	133 nM	21 nM	43 nM			
CNC(=O)c1cc(CCc2cnc(Nc3ccc(O)cc3)nc2)c(Cl)c(OC)c1 [Compound 81]	26 nM	59 nM	13 nM	133 nM	26 nM	17 nM			
CNC(=O)c1cc(COc2cnc(Nc3ccc(CN4CCOCC4)cc3)nc2)c(F)c(OC)c1 [Compound 242]	10 nM	14 nM	10 nM	32 nM	13 nM	18 nM			
CCN1CCN(c2ccc(Nc3ccc(CCc4cc(OC)cc(C(=O)NOC)c4)cn3)cc2)CC1 [Compound 73]	70 nM	65 nM	8 nM	493 nM	25 nM	9 nM			
